According to publication PMC3777193, “Diaryl- and triaryl-pyrrole derivatives: inhibitors of the MDM2–p53 and MDMX–p53 protein–protein interactions” (Medchemcomm, 2013):
Where two headings read alike, the source gives them in different places.

Legend:
SJSA-1 = test: Growth inhibitory activity, SJSA-1; conditions: Homo sapiens, SJSA-1, read-out: GI50 SJSA-1
Experimental: (§2) Growth inhibitory activity was determined for selected pyrroles in a panel of cell lines with defined MDM2, MDMX and p53 status (Table 5).

[1] = Growth inhibitory activity, A2708 (Table S3); type: cell-based; conditions: read-out: GI50 A2708
Excerpt: (§1) (2 pictures or pasted objects on this page, not shown here)

HCT116 = test: Growth inhibitory activity, HCT116 (Table S3); type: cell-based; conditions: Homo sapiens, HCT-116, read-out: GI50 HCT116
Excerpt: as §1

SJSA-1 cells = type: cell-based; conditions: SJSA-1 (MDM2 amplified, p53wt), 5 μM, 4 h
MDM2–p53 = MDM2–p53 (Homo sapiens, UniProt Q00987); test: MDM2–p53 ELISA protein–protein binding assay
MDM2–p53, sequence (Q00987 whole entry): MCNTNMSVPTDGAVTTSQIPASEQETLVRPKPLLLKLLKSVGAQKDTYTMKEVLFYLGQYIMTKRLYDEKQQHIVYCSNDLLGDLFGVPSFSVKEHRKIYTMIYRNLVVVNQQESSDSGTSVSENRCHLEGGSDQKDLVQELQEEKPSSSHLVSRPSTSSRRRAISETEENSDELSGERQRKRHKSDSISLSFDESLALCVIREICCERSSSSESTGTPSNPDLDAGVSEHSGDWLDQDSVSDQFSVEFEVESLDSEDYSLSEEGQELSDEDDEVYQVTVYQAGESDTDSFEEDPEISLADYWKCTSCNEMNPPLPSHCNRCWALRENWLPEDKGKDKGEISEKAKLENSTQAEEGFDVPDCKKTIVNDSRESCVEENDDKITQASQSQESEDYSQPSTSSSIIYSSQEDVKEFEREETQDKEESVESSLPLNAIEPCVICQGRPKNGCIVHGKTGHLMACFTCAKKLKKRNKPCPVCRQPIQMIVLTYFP

A2780CP70 cells = type: cell-based; conditions: A2780 CP70 (p53 mutant), 0.1, 0.2 and 5 μM, 4 h
HCT116 p53(-/-) = test: Growth inhibitory activity, HCT116 p53(-/-) (Table S3); type: cell-based; conditions: Homo sapiens, HCT-116, read-out: GI50 HCT116 p53(-/-)
Excerpt: as §1

A2780-CP70 = test: Growth inhibitory activity, A2780-CP70 (Table S3); type: cell-based; conditions: A2780/CP70, read-out: GI50 A2780-CP70
Excerpt: as §1

MRK-NU-1 = test: Growth inhibitory activity, MRK-NU-1; conditions: Homo sapiens, MRK-nu-1, read-out: GI50 MRK-NU-1
Experimental: as §2

A2780 cells = type: cell-based; conditions: A2780 (p53wt), 0.1, 0.2 and 5 μM, 4 h
MDMX–p53 = target: T1, MDMX–p53 (Homo sapiens, UniProt O15151); test: MDMX–p53 ELISA binding assay; conditions: read-out: MDMX IC50
T1 construct: host or cells: in vitro coupled T7 transcription and rabbit reticulocyte lysate translation
T1 sequence (O15151 1-490): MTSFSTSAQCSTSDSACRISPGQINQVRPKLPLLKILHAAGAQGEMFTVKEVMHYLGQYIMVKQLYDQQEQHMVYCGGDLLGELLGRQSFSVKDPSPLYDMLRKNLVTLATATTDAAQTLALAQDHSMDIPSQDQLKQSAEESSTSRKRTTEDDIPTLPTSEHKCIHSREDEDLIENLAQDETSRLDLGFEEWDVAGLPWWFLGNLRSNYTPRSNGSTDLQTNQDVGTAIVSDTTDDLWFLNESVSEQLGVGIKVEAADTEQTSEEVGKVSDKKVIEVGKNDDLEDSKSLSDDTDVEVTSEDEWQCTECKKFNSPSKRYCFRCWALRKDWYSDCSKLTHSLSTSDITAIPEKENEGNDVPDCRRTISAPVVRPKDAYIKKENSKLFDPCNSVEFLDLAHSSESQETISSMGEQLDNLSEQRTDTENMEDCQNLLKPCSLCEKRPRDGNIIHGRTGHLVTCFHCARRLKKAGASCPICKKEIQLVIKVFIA

SN40R2 = test: Growth inhibitory activity, SN40R2; conditions: read-out: GI50 SN40R2
Experimental: as §2

MDM2 = conditions: read-out: MDM2–p53 IC50; cited from earlier work

Structure (SMILES) | GI50 (SJSA-1) [µM] | GI50 [1] [µM] | GI50 (HCT116) [µM] | induction of MDM2, p53, and p21 (Western blot) (SJSA-1 cells) | IC50 (MDM2–p53) [µM] | induction of MDM2, p53, and p21 (Western blot) (A2780CP70 cells) | GI50 (HCT116 p53(-/-)) [µM] | GI50 (A2780-CP70) [µM] | GI50 (MRK-NU-1) [µM] | induction of MDM2 and p21 (Western blot) (A2780 cells) | fold more potent than the comparable 2,5-dimethyl analogues (4a, 4b) (MDM2–p53) | IC50 (MDM2–p53; read-out: MDM2 IC50) [µM] | IC50 (MDMX–p53) [µM] | GI50 (SN40R2) [µM] | IC50 (MDM2) [µM]
Cc1cc(C=C2C(=O)NC(=S)NC2=O)c(C)n1-c1sc2c(c1C#N)CCCC2 [Compound 3, 2-(3-((4,6-dioxo-2-thioxotetrahydropyrimidin-5(2H)-ylidene)methyl)-2,5-dimethyl-1H-pyrrol-1-yl)-4,5,6,7-tetrahydrobenzo[b]thiophene-3-carbonitrile] | 4.4 ± 0.1 | 3.9 ± 0.1 | 7.8 ± 0.2 | clearly visible | 12.3 | no induction | 7.7 ± 0.1 | 3.9 ± 0.1 |  |  |  |  |  |  | 
O=C1NC(=S)NC(=O)C1=Cc1cc(-c2ccccc2)n(-c2ccc(Cl)cc2)c1-c1ccccc1 [Compound 4c, 5-((1-(4-chlorophenyl)-2,5-diphenyl-1H-pyrrol-3-yl)methylene)-2-thioxodihydropyrimidine-4,6(1H,5H)-dione] | 2.3 ± 0.2 |  |  | clearly visible | 0.12 ± 0.02 | no induction |  |  | 2.3 ± 0.3 | observed | 5–10 fold | 0.11 ± 0.03 | 4.2 ± 1.2 | 2.8 ± 0.6 | 
O=C1NC(=S)N(c2ccccc2)C(=O)/C1=C/c1cc(-c2ccccc2)n(-c2ccc(Cl)cc2)c1-c1ccccc1 [Compound 4d] |  |  |  | clearly visible |  | no induction |  |  |  | observed | 5–10 fold | 0.23 ± 0.044 |  |  | 
CCOc1cc(C(C)(C)C)ccc1C1=N[C@@](C)(c2ccc(Cl)cc2)[C@@](C)(c2ccc(Cl)cc2)N1C(=O)N1CCN(CCCS(C)(=O)=O)CC1 [RG-7112] |  |  |  |  |  |  |  |  |  |  |  |  |  |  | 0.012
